The source of these data is PMC7570888 (Molecules, 2020).

Marks after values point to notes of the source that are not given here.

The target of assay [1] is MT1. The note with it: cited from earlier work.
The target in assay [2] is MT2. The following applies: cited from earlier work.
The target in assay [3] is T1, human MT1 receptor (Homo sapiens, UniProt P48039).
T1 construct: expressed in transfected cells; host or cells: NIH3T3 fibroblast cells, stably transfected; membranes used
Description: 2-[125I]iodomelatonin competition binding, human MT1 in NIH3T3 cell membranes. The following applies: 2-[125I]iodomelatonin 100 pM, 90 min 37 °C; Cheng-Prusoff; mean of at least three determinations in duplicate; read-out: hMT1 pKi (±SD) (converted). As for the experimental part:
(§1) The newly synthesized alpha- and beta-methyl N-anilinoethylamides were evaluated for their binding affinity at human MT1 and MT2 receptors stably transfected in NIH3T3 cells using 2-[^125I]iodomelatonin as radiolabelled ligand.
(§2) Binding affinities were determined using 2- [^125I]iodomelatonin as the labeled ligand in competition experiments on cloned human MT1 and MT2 receptors expressed in NIH3T3 […] fibroblast cells. The characterization of NIH3T3-MT1 and -MT2 cells had been already described in detail. Membranes were incubated for 90 min at 37 °C in binding buffer (Tris-HCl, 50 mM, pH 7.4). The final membrane concentration was 5−10 μg of protein per tube. The membrane protein level was determined in accordance with a previously reported method. […] The pKi values were calculated from the IC50 values in accordance with the Cheng−Prusoff equation [21]. The pKi values are the mean of at least three independent determinations performed in duplicate.

The target in assay [4] is T1, human MT1 receptor. The note with it: relative to melatonin; cited from earlier work.
Assay [5] deals with T2, human MT2 receptor (Homo sapiens, UniProt P49286).
T2 construct: expressed in transfected cells; host or cells: NIH3T3 fibroblast cells, stably transfected; membranes used
T2 sequence (P49286 1-362): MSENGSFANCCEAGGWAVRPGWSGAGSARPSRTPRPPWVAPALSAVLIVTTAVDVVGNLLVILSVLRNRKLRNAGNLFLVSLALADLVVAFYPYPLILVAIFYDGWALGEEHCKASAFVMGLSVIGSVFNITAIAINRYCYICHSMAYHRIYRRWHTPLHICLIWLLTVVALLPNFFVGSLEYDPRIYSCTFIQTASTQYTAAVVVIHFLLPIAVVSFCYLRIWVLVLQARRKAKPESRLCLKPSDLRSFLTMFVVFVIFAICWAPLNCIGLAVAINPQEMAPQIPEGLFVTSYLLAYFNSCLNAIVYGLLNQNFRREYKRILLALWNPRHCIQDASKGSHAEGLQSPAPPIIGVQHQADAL
Put plainly: 2-[125I]iodomelatonin competition binding, human MT2 in NIH3T3 cell membranes. The note with it: 2-[125I]iodomelatonin 100 pM, 90 min 37 °C; Cheng-Prusoff; mean of at least three determinations in duplicate; read-out: hMT2 pKi (±SD) (converted). Here is the method:
as §1, §2

Assay [6] addresses T2, human MT2 receptor. The note with it: relative to melatonin; cited from earlier work.

T1 sequence (P48039 whole entry): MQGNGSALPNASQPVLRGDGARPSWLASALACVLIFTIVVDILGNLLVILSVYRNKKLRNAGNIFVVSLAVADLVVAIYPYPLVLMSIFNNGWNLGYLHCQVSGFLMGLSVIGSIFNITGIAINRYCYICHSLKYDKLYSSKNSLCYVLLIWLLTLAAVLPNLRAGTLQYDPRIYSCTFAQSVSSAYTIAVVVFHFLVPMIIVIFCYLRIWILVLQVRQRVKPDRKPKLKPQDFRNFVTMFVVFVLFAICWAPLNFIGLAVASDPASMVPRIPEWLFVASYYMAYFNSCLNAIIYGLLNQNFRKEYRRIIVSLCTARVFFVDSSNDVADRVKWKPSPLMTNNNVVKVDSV

Take `COc1cc2c([C@@H](C)CNC(C)=O)c[nH]c2cc1Cl` [TIK-301, (R)-β-methyl-6-chloro-melatonin]: the Ki in assay [1] is 0.081 nM; in assay [2], 0.042 nM.
For the molecule `CCC(=O)NC[C@H](CO)c1cccc2ccc(OC)cc12` [compound 1, (R)-N-[3-hydroxy-2-(7-methoxynaphthalen-1-yl)propyl]propanamide], the “pKi(MT1)” value in assay [1] is recorded as 8.47. Also, the “pKi(MT2)” value in assay [2] is on record as 9.50.
On to `COc1cccc(O[C@@H](C)CNC(C)=O)c1` [compound 2, (S)-N-[2-(3-methoxyphenoxy)propyl]acetamide], for which the “pKi(MT1)” value in assay [1] is recorded as 8.77. For the same molecule, the “pKi(MT2)” value in assay [2] is on record as 8.33.
Consider `COc1cccc(N(C)CCNC(C)=O)c1` [compound 3, N-{2-[(3-methoxyphenyl)methylamino]ethyl}acetamide], for which the Ki in assay [3] is 1.74 nM; in assay [5], 2.24 nM. In addition, the “hMT1 IA, relative intrinsic activity” value in assay [4] is given as 0.95 ^c. Also, the “hMT2 IA, relative intrinsic activity” value in assay [6] is 1.06 ^c.
